Laboratory results from patent US20150119251A1, “AGRICULTURAL PLANT-PROTECTING AGENTS CONTAINING DIPEPTIDE DERIVATIVE AS ACTIVE INGREDIENT” (REPUBLIC OF KOREA (RURAL DEVELOPMENT ADMINISTRATION), priority 2012, published 2015).
Peptide text beside a SMILES is read from it. * marks the point of attachment. Boc = CC(C)(C)OC(=O)*; Bz = O=C(c1ccccc1)*; OBn = c1ccc(CO*)cc1; OAll = C=CCO*

What was measured:
[1] = test system: tobacco bacterial rot (Pectobacterium carotovorum); assay: Suppression of tobacco bacterial rot; type: in vivo, Pectobacterium carotovorum SCC1
Description: A tobacco or cucumber was sown in a plastic pot with a diameter of 10 cm×13 cm, and then, 12 pots were added in a yellow box. After seeding, 100 μL was inoculated to the cotyledons of cucumber or tobacco, in which first leaf was started to come out. The test compounds were dissolved in 20% methanol to make a stock solution, and then, the stock solution was diluted to the concentrations of 1, 10, and 100 ppm.
After 7 days, the pathogen of a plant bacterial rot (Pectobacterium carotovorum SCC1) was cultured in a TSA medium for 27 hours; and then, the cultured pathogen was sprayed in a concentration of 10^8 cfu/mL to the plant leaves, and cultured at 30° C. for 3 days. The plant anthracnose germ (Colletotrichum orbiculare) was cultured in a GBA (Green bean agar) medium to induce spores for about 2 to 3 weeks. The germ was sprayed in a concentration of 10^5 cell/mL and then cultured at 26° C. for 1 day. When fourth or fifth leaf came out, 200 μL of each of the test compounds was inoculated to third leaf. After 7 days, the pathogen of the plant bacterial rot was sprayed to the plant leaves in the concentration of 10^8 cfu/mL, and then cultured at 30° C. for 3 days.
The investigation was performed with naked eyes, and the lesion relative areas were investigated until 0 to 100% according to the shortness degrees of the bacterial rot. The anthracnose was investigated by counting the number of lesions occurred on the leaves.

[2] = test system: pepper phytophthora blight (Phytopthora capsici); assay: Suppression of pepper phytophthora blight on leaves; type: in vivo; conditions: for Outbreak of the phytophthora blight on the leaves: drench-treated to the roots; for Lesion outbreak rate: pepper leaves; for Effect on suppressing the outbreak of pepper phytophthora blight or bacterial rot as compared with the non-treated control group: directly sprayed to the leaves
Description: (§1) The peppers were raised in the same method as Example 3, and then, the test compounds were dissolved in 20% methanol to make a stock solution, and a stock was diluted to the concentrations of 0.1, 1.0, and 10.0 ppm. The test solutions were sprayed on the leaves or drench-treated on the leaves. After 7 days, the pathogen of plant bacterial rot (Pectobacterium carotovorum SCC1) was cultured in a TSA medium for 27 hours, and then, wetted on an 8 mm diameter paper disc in the concentration of 10^8 cfu/mL. The paper disc was located in the center of the leaves that were cut roundly, and then, after about 7 days, the lesion area was measured. In the case of phytophthora, the potato agar medium cultured with the phytophthora (Phytophthora capsici) was cut in the internal diameter size of 5 mm with a cork borer, and then inoculated to the leaves. After 7 days, the lesion area was observed. In the case of a bacterial rot, when Compounds 6, 89, 93, and 95 were sprayed on the pepper leaves, the bacterial rot was not found in the concentration of 1 or 10 ppm as compared with the non-treated group. […] The Suppression of lesion formation on the leaves when these compounds were drench-treated to the roots can be explained as it was resulted from that systemic disease resistance was induced in the whole plant. These test results are illustrated in the photographs of FIGS. 5 to 9.

cucumber leaves = assay: Plant growth promotion, width of cucumber leaf; type: in vivo; conditions: non-treated = 100.0 (92.1 mm), unit of the source corrected
Description: The active ingredients (Compounds 5 to 8, 14, and 15) were drenched to the leaves of a plant (pepper, potato, tomato, tobacco, cucumber, and Chinese cabbage), and then, after 7 days, the plant lengths were measured. Since then, the plant disease pathogen was inoculated, and then, after 3 to 5 days, the sizes of the plant leaves were measured and compared with the control group to obtain the relative growth degrees.

[3] = test system: plant bacterial rot (Pectobacterium carotovorum SCC1); assay: Suppression of bacterial rot on pepper leaves (paper disc on cut leaves); type: in vivo; conditions: sprayed on the pepper leaves, 1 or 10 ppm
Description: as §1

pepper plant = assay: Overcoming cold weather-damage on pepper plant (2° C. for 1 day); type: in vivo; conditions: then room temperature 3 days
Description: In order to confirm the immunity-activating effect of the compounds of the present invention, the plants were exposed at the temperature so that they could be artificially damaged from cold weather, and the growth and development were observed. After growing the plants for 6 weeks, the compounds were drenched or sprayed on the leaves and the plants were raised for 1 week. After the plants were exposed under a 2° C. growth room for 1 day, they were raised at room temperature for 3 days. The degrees of the growth and development of the plants were observed and the degrees of the damage from cold weather in the plant were determined. […] The test results are illustrated in the photographs of FIGS. 11 and 12.

[4] = drench-treated, 1.0 or 10.0 ppm

COC(=O)CNC(=O)[C@@H](N)CC(C)C [Compound 4] (H-Leu-Gly-OMe)
Lesion outbreak rate ([1]; Table 3, tobacco, 1 ppm): 47% | Lesion outbreak rate ([1]; Table 3, tobacco, 10 ppm): 80% | Lesion outbreak rate ([1]; Table 3, tobacco, 100 ppm): 90% | Outbreak of the phytophthora blight on the leaves [2]: significantly decreased

COC(=O)CNC(=O)[C@@H](NC(=O)OC(C)(C)C)C(C)C [Compound 5] (Boc-Val-Gly-OMe)
Lesion outbreak rate ([1]; Table 3, tobacco, 1 ppm): 73% | Lesion outbreak rate ([1]; Table 3, tobacco, 10 ppm): 40% | Lesion outbreak rate ([1]; Table 3, tobacco, 100 ppm): 7.7% | Width of cucumber leaf (relative value to the non-treated group) (cucumber leaves; 1.0 ppm): 100% | Width of cucumber leaf (relative value to the non-treated group) (cucumber leaves; 10 ppm): 111% | Width of cucumber leaf (relative value to the non-treated group) (cucumber leaves; 100 ppm): 121%

COC(=O)CNC(=O)[C@@H](N)C(C)C [Compound 6] (H-Val-Gly-OMe)
Lesion outbreak rate ([1]; Table 3, tobacco, 1 ppm): 11% | Lesion outbreak rate ([1]; Table 3, tobacco, 10 ppm): 2.1% | Lesion outbreak rate ([1]; Table 3, tobacco, 100 ppm): 3.5% | Bacterial rot on pepper leaves as compared with the non-treated group [3]: not found | Width of cucumber leaf (relative value to the non-treated group) (cucumber leaves; 1.0 ppm): 114% | Width of cucumber leaf (relative value to the non-treated group) (cucumber leaves; 10 ppm): 124% | Width of cucumber leaf (relative value to the non-treated group) (cucumber leaves; 100 ppm): 123%

COC(=O)C(CC(C)C)NC(=O)C(NC(=O)OC(C)(C)C)C(C)O (stereo not drawn) [Compound 7] (Boc-Thr-Leu-OMe; configuration not given here)
Lesion outbreak rate ([1]; Table 3, tobacco, 1 ppm): 40% | Lesion outbreak rate ([1]; Table 3, tobacco, 10 ppm): 27% | Lesion outbreak rate ([1]; Table 3, tobacco, 100 ppm): 20% | Width of cucumber leaf (relative value to the non-treated group) (cucumber leaves; 1.0 ppm): 110% | Width of cucumber leaf (relative value to the non-treated group) (cucumber leaves; 10 ppm): 121% | Width of cucumber leaf (relative value to the non-treated group) (cucumber leaves; 100 ppm): 121%

COC(=O)C(CC(C)C)NC(=O)C(N)C(C)O (stereo not drawn) [Compound 8] (H-Thr-Leu-OMe; configuration not given here)
Lesion outbreak rate ([1]; Table 3, tobacco, 1 ppm): 43% | Lesion outbreak rate ([1]; Table 3, tobacco, 10 ppm): 57% | Lesion outbreak rate ([1]; Table 3, tobacco, 100 ppm): 0% | Width of cucumber leaf (relative value to the non-treated group) (cucumber leaves; 1.0 ppm): 122% | Width of cucumber leaf (relative value to the non-treated group) (cucumber leaves; 10 ppm): 123% | Width of cucumber leaf (relative value to the non-treated group) (cucumber leaves; 100 ppm): 120%

COC(=O)[C@H](C)NC(=O)CNC(=O)OC(C)(C)C [Compound 14] (Boc-Gly-Ala-OMe)
Lesion outbreak rate ([1]; Table 6, tobacco, 1 ppm): 50% | Lesion outbreak rate ([1]; Table 6, tobacco, 10 ppm): 78% | Lesion outbreak rate ([1]; Table 6, tobacco, 100 ppm): 35% | Width of cucumber leaf (relative value to the non-treated group) (cucumber leaves; 1.0 ppm): 104% | Width of cucumber leaf (relative value to the non-treated group) (cucumber leaves; 10 ppm): 103% | Width of cucumber leaf (relative value to the non-treated group) (cucumber leaves; 100 ppm): 113%

COC(=O)[C@H](C)NC(=O)[C@H](Cc1ccc(O)cc1)NC(=O)OC(C)(C)C [Compound 15]
Lesion outbreak rate ([1]; Table 6, tobacco, 1 ppm): 75% | Lesion outbreak rate ([1]; Table 6, tobacco, 10 ppm): 63% | Lesion outbreak rate ([1]; Table 6, tobacco, 100 ppm): 50% | Width of cucumber leaf (relative value to the non-treated group) (cucumber leaves; 1.0 ppm): 98.9% | Width of cucumber leaf (relative value to the non-treated group) (cucumber leaves; 10 ppm): 113% | Width of cucumber leaf (relative value to the non-treated group) (cucumber leaves; 100 ppm): 112%

COC(=O)C[C@H](NC(=O)OC(C)(C)C)C(=O)N[C@@H](Cc1ccccc1)C(=O)OC [Compound 90] (Boc-Asp(OMe)-Phe-OMe)
Lesion outbreak rate ([2]; 0.1 ppm): 24 area % | Lesion outbreak rate ([2]; 1.0 ppm): 7.2 area % | Cold weather-damage (pepper plant; sprayed on the leaves): no damages observed

COC(=O)C[C@H](N)C(=O)N[C@@H](Cc1ccccc1)C(=O)OC [Compound 91] (H-Asp(OMe)-Phe-OMe)
Effect on suppressing the outbreak of pepper phytophthora blight or bacterial rot as compared with the non-treated control group [2]: excellent | Lesion outbreak rate ([2]; 0.1 ppm): 14 area % | Lesion outbreak rate ([2]; 1.0 ppm): 24 area % | Cold weather-damage (pepper plant; sprayed on the leaves): no damages observed

C=CCOC(=O)C[C@H](N)C(=O)N[C@@H](Cc1ccccc1)C(=O)OC [Compound 93] (H-Asp(OAll)-Phe-OMe)
Bacterial rot on pepper leaves as compared with the non-treated group [3]: not found | Effect on suppressing the outbreak of pepper phytophthora blight or bacterial rot as compared with the non-treated control group [2]: excellent | Lesion outbreak rate ([2]; 0.1 ppm): 35 area % | Lesion outbreak rate ([2]; 1.0 ppm): 23 area % | Cold weather-damage (pepper plant; sprayed on the leaves): no damages observed

COC(=O)[C@H](Cc1ccccc1)NC(=O)[C@@H](N)CC(=O)OCc1ccccc1 [Compound 95] (H-Asp(OBn)-Phe-OMe)
Bacterial rot on pepper leaves as compared with the non-treated group [3]: not found | Outbreak of the phytophthora blight on the leaves [2]: significantly decreased | Lesion formation, pepper phytophthora test [2, 4]: no the lesion formations | Lesion outbreak rate ([2]; 0.1 ppm): 9.2 area % | Lesion outbreak rate ([2]; 1.0 ppm): 3.8 area % | Cold weather-damage (pepper plant; drench-treated): no cold weather-damages | Cold weather-damage (pepper plant; sprayed on the leaves): no damages observed

COC(=O)[C@H](Cc1ccccc1)NC(=O)[C@H](CC(=O)OCc1ccccc1)NC(C)=O [Compound 100] (Ac-Asp(OBn)-Phe-OMe)
Lesion outbreak rate ([2]; 0.1 ppm): 19 area % | Lesion outbreak rate ([2]; 1.0 ppm): 21 area %

COC(=O)[C@H](Cc1ccccc1)NC(=O)[C@H](CC(=O)OCc1ccccc1)NC(=O)c1ccccc1 [Compound 101] (Bz-Asp(OBn)-Phe-OMe)
Lesion outbreak rate ([2]; 0.1 ppm): 11 area % | Lesion outbreak rate ([2]; 1.0 ppm): 27 area %

COC(=O)[C@H](Cc1ccccc1)NC(=O)[C@H](CC(=O)O)NC(C)=O [Compound 102] (Ac-Asp-Phe-OMe)
Lesion outbreak rate ([2]; 0.1 ppm): 20 area % | Lesion outbreak rate ([2]; 1.0 ppm): 15 area %

COC(=O)CNC(=O)[C@@H](NC(C)=O)C(C)C [Compound 103] (Ac-Val-Gly-OMe)
Lesion outbreak rate ([2]; 0.1 ppm): 15 area % | Lesion outbreak rate ([2]; 1.0 ppm): 28 area %

COC(=O)CNC(=O)[C@H](CC(C)C)NC(C)=O [Compound 104] (Ac-Leu-Gly-OMe)
Lesion outbreak rate ([2]; 0.1 ppm): 22 area % | Lesion outbreak rate ([2]; 1.0 ppm): 18 area %

COC(=O)CNC(=O)[C@@H]1CCCN1C(C)=O [Compound 105] (Ac-Pro-Gly-OMe)
Lesion outbreak rate ([2]; 0.1 ppm): 18 area % | Lesion outbreak rate ([2]; 1.0 ppm): 21 area %

COC(=O)[C@@H]1CCCN1C(=O)CNC(=O)OC(C)(C)C [Compound 106] (Boc-Gly-Pro-OMe)
Lesion outbreak rate ([2]; 0.1 ppm): 25 area % | Lesion outbreak rate ([2]; 1.0 ppm): 26 area %

COC(=O)[C@@H]1CCCN1C(=O)[C@@H](N)Cc1c[nH]c2ccccc12 [Compound 107] (H-Trp-Pro-OMe)
Effect on suppressing the outbreak of pepper phytophthora blight or bacterial rot as compared with the non-treated control group [2]: excellent | Outbreak of the phytophthora blight on the leaves [2]: significantly decreased | Lesion formation, pepper phytophthora test [2, 4]: no the lesion formations | Lesion outbreak rate ([2]; 0.1 ppm): 9.3 area % | Lesion outbreak rate ([2]; 1.0 ppm): 3.5 area % | Lesion formation, pepper phytophthora test ([2]; sprayed on the leaves, 1 or 0.1 ppm): no the lesion formations

COC(=O)[C@H](C)NC(=O)[C@@H](N)C(C)C [Compound 108] (H-Val-Ala-OMe)
Lesion outbreak rate ([2]; 0.1 ppm): 14 area % | Lesion outbreak rate ([2]; 1.0 ppm): 18 area %

CCC(C)C(N)C(=O)NC(C)C(=O)OC (stereo not drawn) [Compound 109]
Lesion outbreak rate ([2]; 0.1 ppm): 25 area % | Lesion outbreak rate ([2]; 1.0 ppm): 9.4 area %
